# Assays:
# rat [1] = settings: Combined chronic toxicity/carcinogenicity, sprague dawley, Dermal, Topical, dose end: 101 week, group: systemic
# rat [2] = settings: Multigenerational reproductive toxicity study, other, Oral, Feed, dose end: 2 generation
# dog [3] = settings: Subchronic oral toxicity in nonrodent, beagle, Feed, dose end: 90 day, group: systemic, systemic / clinical chemistry / cortisol / cortisol + systemic / organ weight / liver / relative to body weight + systemic / pathology …
# mouse [4] = settings: Subchronic oral toxicity in rodents, cd1, Feed, dose end: 90 day, group: systemic, systemic / clinical chemistry / hepatic mixed function oxidase (mfo) assay / hepatic mixed function oxidase (mfo) assay + systemic / in life…
# rat [5] = settings: Combined chronic toxicity/carcinogenicity, other, Oral, Feed, dose end: 24 month, group: systemic
# rat [6] = settings: Subchronic oral toxicity in rodents, sprague dawley, Feed, dose end: 90 day, group: systemic
# mouse [7] = settings: Carcinogenicity; b6c3f1; Oral; Feed; dose end: 78 week; group: systemic; systemic / in life observation / body weight / body weight gain
# dog [8] = settings: Chronic toxicity, beagle, Oral, Feed, dose end: 52 week, group: systemic
# hamster = settings: Subchronic oral toxicity in rodents, golden syrian, Feed, dose end: 90 day, group: systemic, systemic / in life observation / body weight / body weight + systemic / in life observation / body weight / body weight gain + systemic / in…
# rat [9] = settings: Subchronic oral toxicity in rodents, wistar, Feed, dose end: 90 day, group: systemic, systemic / clinical chemistry / cholesterol / cholesterol + systemic / pathology microscopic / kidney / degeneration + systemic / pathology …
# rabbit [10] = settings: Prenatal developmental toxicity study, new zealand white, Oral, Gavage/Intubation, dose end: 28 GD
# rat [11] = settings: Prenatal developmental toxicity study, sprague dawley, Oral, Gavage/Intubation, dose end: 20 GD
# dog [12] = settings: Chronic toxicity, beagle, Oral, Capsule, dose end: 55 week, group: systemic
# rat [13] = settings: Combined chronic toxicity/carcinogenicity, wistar, Oral, Feed, dose end: 106 week, group: systemic
# rabbit [14] = settings: Prenatal developmental toxicity study, new zealand white, Oral, Gavage/Intubation, dose end: 20 GD
# rat [15] = settings: Multigenerational reproductive toxicity study, wistar, Oral, Feed, dose end: 2 generation
# rat [16] = settings: Prenatal developmental toxicity study, sprague dawley, Oral, Gavage/Intubation, dose end: 20 GD; remark: listed apart in the source
# rat [17] = settings: Combined chronic toxicity/carcinogenicity, sprague dawley, Oral, Feed, dose end: 104 week, group: systemic
# dog [18] = settings: Subchronic oral toxicity in nonrodent, beagle, Capsule, dose end: 13 week, group: systemic, systemic / clinical chemistry / alanine aminotransferase (alt/sgpt) / alanine aminotransferase (alt/sgpt) + systemic / clinical chemistry / …
# rat [19] = settings: Developmental neurotoxicity study; sprague dawley; Oral; Gavage/Intubation; dose end: 70 PND; group: cannot be grouped; reproductive / reproductive performance / gestational length / gestational length + systemic / in life observation / body weight / body …
# rat [20] = settings: Developmental neurotoxicity study; sprague dawley; Oral; Water; dose end: 42 PND; group: cannot be grouped; developmental / developmental landmark / eye opening / eye opening + systemic / in life observation / body weight / offspring (pup) weight
# rat [21] = settings: Developmental neurotoxicity study; fischer; Oral; Water; dose end: 90 PND; group: cannot be grouped; developmental / developmental landmark / incisor eruption / incisor eruption + systemic / in life observation / body weight / offspring (pup…
# [22] = systemic / pathology microscopic / mammary gland / fibroadenoma + systemic / in life observation / body weight / body weight + systemic / in…
# [23] = systemic / pathology microscopic / mammary gland / fibroadenoma + systemic / pathology microscopic / pituitary gland / acidophil adenoma + …
# [24] = group: offspring, developmental / offspring survival late / viability index / viability index + systemic / in life observation / body weight / offspring (pup…
# [25] = group: parental, systemic / pathology microscopic / liver / hypertrophy + systemic / pathology microscopic / liver / vacuolization
# [26] = group: reproductive, reproductive / offspring survival early / dead fetuses / dead fetuses
# [27] = systemic / pathology microscopic / liver / hypertrophy + systemic / pathology microscopic / liver / vacuolization + systemic / clinical …
# [28] = systemic / pathology microscopic / thyroid gland / hypertrophy
# [29] = systemic / pathology microscopic / thyroid gland / hypertrophy + systemic / clinical chemistry / alanine aminotransferase (alt/sgpt) / …
# [30] = systemic / clinical chemistry / albumin / albumin + systemic / clinical chemistry / alkaline phosphatase (alp/alk) / alkaline phosphatase (…
# [31] = systemic / hematology / hematocrit (hct) / hematocrit (hct) + systemic / hematology / hemoglobin (hgb) / hemoglobin (hgb)
# [32] = group: developmental, developmental / developmental malformation / bone / incomplete ossification + developmental / developmental malformation / eye / [other] + …
# [33] = group: maternal, reproductive / reproductive performance / aborted / aborted + reproductive / reproductive performance / postimplantation loss / …
# [34] = group: developmental, developmental / developmental malformation / bone / incomplete ossification
# [35] = group: maternal, reproductive / reproductive performance / postimplantation loss / postimplantation loss + systemic / in life observation / body weight / …
# [36] = systemic / pathology microscopic / adrenal gland / vacuolization + systemic / clinical chemistry / [other] / [other] + systemic / clinical …
# [37] = systemic / in life observation / body weight / body weight gain
# [38] = group: developmental, developmental / developmental malformation / bone / full supernumerary + developmental / developmental malformation / bone / incomplete …
# [39] = group: maternal, reproductive / reproductive performance / aborted / aborted + systemic / in life observation / body weight / body weight gain + systemic / …
# [40] = group: maternal, reproductive / offspring survival early / litter size / litter size
# [41] = group: parental, systemic / organ weight / epididymis / absolute + systemic / organ weight / epididymis / relative to body weight
# [42] = group: parental, systemic / organ weight / epididymis / absolute + systemic / organ weight / epididymis / relative to body weight + systemic / organ weight…
# [43] = group: reproductive, reproductive / reproductive performance / gestational length / gestational length + reproductive / reproductive performance / implantations…
# [44] = group: developmental, systemic / in life observation / body weight / fetal weight + developmental / developmental malformation / bone / absent + developmental / …
# [45] = group: maternal, reproductive / reproductive performance / implantations / implantations
# [46] = systemic / in life observation / clinical signs / fur (altered appearance)
compound,measurement,setting,value
CC/C(=C(\c1ccc(O)cc1)c1ccc(OCCN(C)C)cc1)c1ccccc1 [4-Hydroxytamoxifen],LEL,rat [1]; [22],0.02 mg/kg/day
same,NEL,rat [1]; [22],< 0.02 mg/kg/day
same,LOAEL,rat [1]; [23],> 1 mg/kg/day
same,NOAEL,rat [1]; [23],≥ 1 mg/kg/day
OC(c1ccc(Cl)cc1)(c1ccc(Cl)cc1)C(Cl)(Cl)Cl [Dicofol],LEL,"rat [2]; group: offspring, developmental / offspring survival late / [other] / [other] + developmental / offspring survival late / viability index / viability index",11.2 mg/kg/day
same,NEL,"rat [2]; group: offspring, developmental / offspring survival late / [other] / [other] + developmental / offspring survival late / viability index / viability index + …",2.2 mg/kg/day
same,LOAEL,rat [2]; [24],> 23.2 mg/kg/day
same,NOAEL,rat [2]; [24],≥ 23.2 mg/kg/day
same,LEL,rat [2]; [25],1.9 mg/kg/day
same,LOAEL,rat [2]; [25],1.9 mg/kg/day
same,NEL,rat [2]; [25],0.4 mg/kg/day
same,NOAEL,rat [2]; [25],0.4 mg/kg/day
same,LEL,rat [2]; [26],23.2 mg/kg/day
same,LOAEL,rat [2]; [26],> 23.2 mg/kg/day
same,NEL,rat [2]; [26],11.2 mg/kg/day
same,NOAEL,rat [2]; [26],≥ 23.2 mg/kg/day
same,LEL,dog [3],3.3 mg/kg/day
same,LOAEL,dog [3],3.3 mg/kg/day
same,NEL,dog [3],0.29 mg/kg/day
same,NOAEL,dog [3],0.29 mg/kg/day
same,LEL,mouse [4],18.2 mg/kg/day
same,LOAEL,mouse [4],18.2 mg/kg/day
same,NEL,mouse [4],1.6 mg/kg/day
same,NOAEL,mouse [4],1.6 mg/kg/day
same,LOAEL,rat [5]; systemic / pathology microscopic / liver / hypertrophy + systemic / pathology microscopic / liver / vacuolization,2.23 mg/kg/day
same,LEL,rat [5]; [27],2.23 mg/kg/day
same,NEL,rat [5]; [27],0.22 mg/kg/day
same,NOAEL,rat [5]; [27],0.22 mg/kg/day
same,LEL,rat [6]; [28],0.64 mg/kg/day
same,LOAEL,rat [6]; [28],0.64 mg/kg/day
same,NEL,rat [6]; [29],0.07 mg/kg/day
same,NOAEL,rat [6]; [29],0.07 mg/kg/day
same,LEL,mouse [7],35 mg/kg/day
same,LOAEL,mouse [7],35 mg/kg/day
same,NEL,mouse [7],17 mg/kg/day
same,NOAEL,mouse [7],17 mg/kg/day
same,LOAEL,dog [8]; [30],5.42 mg/kg/day
same,NOAEL,dog [8]; [30],0.85 mg/kg/day
same,LEL,dog [8]; [31],0.12 mg/kg/day
same,NEL,dog [8]; [31],< 0.12 mg/kg/day
CCCCOC(=O)C(C)Oc1ccc(Oc2ccc(C(F)(F)F)cn2)cc1 (centres undefined) [Fluazifop-butyl],LEL,hamster,292 mg/kg/day
same,LOAEL,hamster,292 mg/kg/day
same,NEL,hamster,78.3 mg/kg/day
same,NOAEL,hamster,78.3 mg/kg/day
same,LEL,rat [9],7.1 mg/kg/day
same,LOAEL,rat [9],7.1 mg/kg/day
same,NEL,rat [9],0.7 mg/kg/day
same,NOAEL,rat [9],0.7 mg/kg/day
same,LEL,rabbit [10]; [32],90 mg/kg/day
same,LOAEL,rabbit [10]; [32],90 mg/kg/day
same,NEL,rabbit [10]; [32],30 mg/kg/day
same,NOAEL,rabbit [10]; [32],30 mg/kg/day
same,LEL,rabbit [10]; [33],90 mg/kg/day
same,LOAEL,rabbit [10]; [33],90 mg/kg/day
same,NEL,rabbit [10]; [33],30 mg/kg/day
same,NOAEL,rabbit [10]; [33],30 mg/kg/day
same,LEL,rat [11]; [34],10 mg/kg/day
same,LOAEL,rat [11]; [34],10 mg/kg/day
same,NEL,rat [11]; [34],< 10 mg/kg/day
same,NOAEL,rat [11]; [34],< 10 mg/kg/day
same,LEL,rat [11]; [35],200 mg/kg/day
same,LOAEL,rat [11]; [35],> 200 mg/kg/day
same,NEL,rat [11]; [35],50 mg/kg/day
same,NOAEL,rat [11]; [35],≥ 200 mg/kg/day
same,NEL,dog [12]; [36],5 mg/kg/day
same,NOAEL,dog [12]; [36],5 mg/kg/day
same,LOAEL,dog [12]; systemic / pathology microscopic / adrenal gland / vacuolization + systemic / pathology microscopic / thymus / involution,25 mg/kg/day
same,LEL,dog [12]; systemic / pathology microscopic / adrenal gland / vacuolization + systemic / pathology microscopic / thymus / involution + systemic / …,25 mg/kg/day
same,LEL,rat [13]; [37],0.127 mg/kg/day
same,NEL,rat [13]; [37],< 0.127 mg/kg/day
same,LOAEL,rat [13]; systemic / pathology microscopic / kidney / nephropathy + systemic / in life observation / mortality / mortality,4.15 mg/kg/day
same,NOAEL,rat [13]; systemic / pathology microscopic / kidney / nephropathy + systemic / organ weight / kidney / absolute + systemic / organ weight / kidney / …,0.51 mg/kg/day
same,LEL,rabbit [14]; [38],50 mg/kg/day
same,LOAEL,rabbit [14]; [38],50 mg/kg/day
same,NEL,rabbit [14]; [38],10 mg/kg/day
same,NOAEL,rabbit [14]; [38],10 mg/kg/day
same,LEL,rabbit [14]; [39],50 mg/kg/day
same,LOAEL,rabbit [14]; [39],50 mg/kg/day
same,NEL,rabbit [14]; [39],10 mg/kg/day
same,NOAEL,rabbit [14]; [39],10 mg/kg/day
same,LEL,rat [15]; [40],17.5 mg/kg/day
same,LOAEL,rat [15]; [40],17.5 mg/kg/day
same,NEL,rat [15]; [40],5.8 mg/kg/day
same,NOAEL,rat [15]; [40],5.8 mg/kg/day
same,LOAEL,"rat [15]; group: offspring, reproductive / offspring survival early / litter size / litter size",17.5 mg/kg/day
same,NOAEL,"rat [15]; group: offspring, reproductive / offspring survival early / litter size / litter size + systemic / pathology microscopic / kidney / hydronephrosis",5.8 mg/kg/day
same,LEL,"rat [15]; group: offspring, systemic / pathology microscopic / kidney / hydronephrosis",7.1 mg/kg/day
same,NEL,"rat [15]; group: offspring, systemic / pathology microscopic / kidney / hydronephrosis + developmental / offspring survival late / viability index / viability index + …",0.88 mg/kg/day
same,LEL,rat [15]; [41],0.74 mg/kg/day
same,NEL,rat [15]; [41],< 0.74 mg/kg/day
same,LOAEL,rat [15]; [42],5.8 mg/kg/day
same,NOAEL,rat [15]; [42],0.74 mg/kg/day
same,NEL,"rat [15]; group: reproductive, reproductive / offspring survival early / birth index / live birth index + reproductive / reproductive performance / fertility / fertility…",0.88 mg/kg/day
same,LEL,"rat [15]; group: reproductive, reproductive / reproductive performance / gestational length / gestational length",7.1 mg/kg/day
same,LOAEL,rat [15]; [43],> 21.7 mg/kg/day
same,NOAEL,rat [15]; [43],≥ 21.7 mg/kg/day
same,LOAEL,"rat [16]; group: developmental, systemic / in life observation / body weight / fetal weight",5 mg/kg/day
same,LEL,rat [16]; [44],5 mg/kg/day
same,NEL,rat [16]; [44],1 mg/kg/day
same,NOAEL,rat [16]; [44],1 mg/kg/day
same,LEL,rat [16]; [45],10 mg/kg/day
same,LOAEL,rat [16]; [45],> 200 mg/kg/day
same,NEL,rat [16]; [45],5 mg/kg/day
same,NOAEL,rat [16]; [45],≥ 200 mg/kg/day
same,LEL,rat [17]; [46],0.1 mg/kg/day
same,NEL,rat [17]; [46],< 0.1 mg/kg/day
same,LOAEL,rat [17]; systemic / in life observation / mortality / mortality,3 mg/kg/day
same,NOAEL,rat [17]; systemic / in life observation / mortality / mortality + systemic / in life observation / clinical signs / fur (altered appearance) + …,1 mg/kg/day
same,LEL,dog [18],250 mg/kg/day
same,LOAEL,dog [18],250 mg/kg/day
same,NEL,dog [18],25 mg/kg/day
same,NOAEL,dog [18],25 mg/kg/day
Cn1cc[nH]c1=S [Methimazole],LEL,rat [19],20 mg/kg/day
same,LOAEL,rat [19],> 20 mg/kg/day
same,NEL,rat [19],< 20 mg/kg/day
same,NOAEL,rat [19],≥ 20 mg/kg/day
same,LEL,rat [20],7 mg/kg/day
same,LOAEL,rat [20],> 7 mg/kg/day
same,NEL,rat [20],< 7 mg/kg/day
same,NOAEL,rat [20],≥ 7 mg/kg/day
same,LEL,rat [21],1.5 mg/kg/day
same,LOAEL,rat [21],> 15 mg/kg/day
same,NEL,rat [21],< 1.5 mg/kg/day
same,NOAEL,rat [21],≥ 15 mg/kg/day

# Source: EPA's ToxRefDB 2
